In the assay the target is T1, Recombinant human CBP containing the bromodomain (CBP-BD (1043-1159)) (Homo sapiens, UniProt Q92793).
T1 construct: Recombinant human CBP bromodomain (CBP-BD (1043-1159)); made in house; host or cells: E. coli BL21-CodonPlus (DE3), modified pET vector
Description: CBP Alphascreen binding assay. As to conditions: read-out: CREBBP (CBP) IC50. In short, it runs like this: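 Buffer: 50 mM HEPES pH 7.5, 50 mM NaCl, 0.01% BSA, 0.01% Triton X-100, 2 mM DTT. The signal was normalised to plate controls and fitted with a four-parameter curve to give IC50.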

23 compounds from patent publication US11446287B2, “Compounds and methods for EP300 or CBP modulation and indications therefor” (Opna Immuno-Oncology SA, priority 2019, dated 2022) can be followed below.

One may read the IC50 as the point on the concentration scale where inhibition reaches its midpoint.

SMILES strings stand for the structures.

T1 sequence (Q92793 1081-1197): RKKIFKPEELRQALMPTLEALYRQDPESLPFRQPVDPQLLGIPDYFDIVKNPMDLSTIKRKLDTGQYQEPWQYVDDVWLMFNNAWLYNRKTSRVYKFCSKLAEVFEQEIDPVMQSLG

Turning to `Cc1noc(C)c1-c1cnc2c(c1)c(-c1cnn(C(C)(C)C(=O)O)c1)cn2C(c1ccccn1)C1CCCC1` (centres unmarked) [P-0035, 2-(4-(1-(cyclopentyl(pyridin-2-yl)methyl)-5-(3,5-dimethylisoxazol-4-yl)-1H-pyrrolo[2,3-b]pyridin-3-yl)-1H-pyrazol-1-yl)-2-methylpropanoic acid], the IC50 fell in the range of 0.1 to 1000 nM.
The result for `Cc1noc(C)c1-c1cnc2c(c1)c(-c1cnn(CC(=O)O)c1)cn2C(c1ccccn1)C1CCCC1` (centres unmarked) [P-0036, 2-(4-(1-(cyclopentyl(pyridin-2-yl)methyl)-5-(3,5-dimethylisoxazol-4-yl)-1H-pyrrolo[2,3-b]pyridin-3-yl)-1H-pyrazol-1-yl)acetic acid] reads 0.1 to 1000 nM.
The result for `Cc1noc(C)c1-c1cnc2c(c1)c(-c1cnn(CC(C)(C)O)c1)cn2C(c1ccccn1)C1CCCC1` (centres unmarked) [P-0037, 1-(4-(1-(cyclopentyl(pyridin-2-yl)methyl)-5-(3,5-dimethylisoxazol-4-yl)-1H-pyrrolo[2,3-b]pyridin-3-yl)-1H-pyrazol-1-yl)-2-methylpropan-2-ol] reads 1000 to 8000 nM; that for `Cc1noc(C)c1-c1cnc2c(c1)c(-c1ccc(C(=O)O)c(Cl)c1)cn2C(c1ccccn1)C1CCCC1` (centres unmarked) [P-0038, 2-chloro-4-(1-(cyclopentyl(pyridin-2-yl)methyl)-5-(3,5-dimethylisoxazol-4-yl)-1H-pyrrolo[2,3-b]pyridin-3-yl)benzoic acid], 0.1 to 1000 nM; that for `COC(=O)c1cc(-c2cn(C(c3ccccn3)C3CCCC3)c3ncc(-c4c(C)noc4C)cc23)ccn1` (centres unmarked) [P-0040, methyl 4-(1-(cyclopentyl(pyridin-2-yl)methyl)-5-(3,5-dimethylisoxazol-4-yl)-1H-pyrrolo[2,3-b]pyridin-3-yl)picolinate], 0.1 to 1000 nM.
In the case of `Cc1noc(C)c1-c1cnc2c(c1)c(-c1ccnc(C(=O)O)c1)cn2C(C1CC1)C1CC1` [P-0041, 4-(1-(dicyclopropylmethyl)-5-(3,5-dimethylisoxazol-4-yl)-1H-pyrrolo[2,3-b]pyridin-3-yl)picolinic acid], the IC50 lay within 0.1 to 1000 nM.
With `Cc1noc(C)c1-c1cnc2c(c1)c(-c1ccnc(C(=O)O)c1)cn2Cc1ccccc1` [P-0042, 4-(1-benzyl-5-(3,5-dimethylisoxazol-4-yl)-1H-pyrrolo[2,3-b]pyridin-3-yl)picolinic acid], the half-inhibitory concentration (IC50) was in the range of 0.1 to 1000 nM.
As for `Cc1noc(C)c1-c1cnc2c(c1)c(-c1ccnc(C(=O)O)c1)cn2C(c1ccccn1)C1CCC1` (centres unmarked) [P-0043, 4-(1-(cyclobutyl(pyridin-2-yl)methyl)-5-(3,5-dimethylisoxazol-4-yl)-1H-pyrrolo[2,3-b]pyridin-3-yl)picolinic acid], the IC50 fell in the range of 0.1 to 1000 nM.
Regarding `Cc1noc(C)c1-c1cnc2c(c1)c(-c1ccnc(C(=O)O)c1)cn2Cc1ccccn1` [P-0044, 4-(5-(3,5-dimethylisoxazol-4-yl)-1-(pyridin-2-ylmethyl)-1H-pyrrolo[2,3-b]pyridin-3-yl)picolinic acid], the IC50 was 0.1 to 1000 nM.
For the compound `Cc1noc(C)c1-c1cnc2c(c1)c(-c1ccnc(C(=O)O)c1)cn2CC1CC1` [P-0045, 4-(1-(cyclopropylmethyl)-5-(3,5-dimethylisoxazol-4-yl)-1H-pyrrolo[2,3-b]pyridin-3-yl)picolinic acid], the IC50 lay within 0.1 to 1000 nM.
As for `COC(=O)c1cc(-c2cn(C(c3ccccn3)C3CCC3)c3ncc(-c4c(C)noc4C)cc23)ccn1` (centres unmarked) [P-0046, methyl 4-(1-(cyclobutyl(pyridin-2-yl)methyl)-5-(3,5-dimethylisoxazol-4-yl)-1H-pyrrolo[2,3-b]pyridin-3-yl)picolinate], the concentration for half-maximal inhibition (IC50) was in the range of 0.1 to 1000 nM.
As to `COc1cc(C(=O)O)ccc1-c1cn([C@@H](C)c2ccccn2)c2ncc(-c3c(C)noc3C)cc12` [P-0047, (S)-4-(5-(3,5-dimethylisoxazol-4-yl)-1-(1-(pyridin-2-yl)ethyl)-1H-pyrrolo[2,3-b]pyridin-3-yl)-3-methoxybenzoic acid], the IC50 was in the range of 0.1 to 1000 nM.
In the case of `Cc1noc(C)c1-c1cnc2c(c1)c(-c1cccc(C(=O)O)c1)cn2Cc1ccccc1` [P-0048, 3-(1-benzyl-5-(3,5-dimethylisoxazol-4-yl)-1H-pyrrolo[2,3-b]pyridin-3-yl)benzoic acid] it was 0.1 to 1000 nM; in that of `Cc1noc(C)c1-c1cnc2c(c1)c(-c1cccc(C(=O)O)c1)cn2Cc1ccccn1` [P-0049, 3-(5-(3,5-dimethylisoxazol-4-yl)-1-(pyridin-2-ylmethyl)-1H-pyrrolo[2,3-b]pyridin-3-yl)benzoic acid], 0.1 to 1000 nM.
In the case of `Cc1noc(C)c1-c1cnc2c(c1)c(-c1cccc(C(=O)O)c1)cn2CC1CC1` [P-0050, 3-(1-(cyclopropylmethyl)-5-(3,5-dimethylisoxazol-4-yl)-1H-pyrrolo[2,3-b]pyridin-3-yl)benzoic acid] it was 0.1 to 1000 nM.
Regarding `Cc1noc(C)c1-c1cnc2c(c1)c(C#CC(C)(C)C(=O)O)cn2Cc1ccccc1` [P-0051, 4-(1-benzyl-5-(3,5-dimethylisoxazol-4-yl)-1H-pyrrolo[2,3-b]pyridin-3-yl)-2,2-dimethylbut-3-ynoic acid], the IC50 lay within 0.1 to 1000 nM.
With `COC(=O)c1cc(-n2cc(Cc3ccccc3)c3ncc(-c4c(C)noc4C)cc32)ccn1` [P-0052, methyl 4-(3-benzyl-6-(3,5-dimethylisoxazol-4-yl)-1H-pyrrolo[3,2-b]pyridin-1-yl)picolinate], the IC50 lay in the range of 0.1 to 1000 nM.
The result for `Cc1noc(C)c1-c1cnc2c(Cc3ccccc3)cn(-c3ccnc(C(=O)O)c3)c2c1` [P-0053, 4-(3-benzyl-6-(3,5-dimethylisoxazol-4-yl)-1H-pyrrolo[3,2-b]pyridin-1-yl)picolinic acid] reads 0.1 to 1000 nM.
Regarding `Cc1noc(C)c1-c1cnc2c(C(=O)c3ccccc3)cn(-c3ccnc(C(=O)O)c3)c2c1` [P-0054, 4-(3-benzoyl-6-(3,5-dimethylisoxazol-4-yl)-1H-pyrrolo[3,2-b]pyridin-1-yl)picolinic acid], the 50% inhibitory concentration (IC50) lay within 0.1 to 1000 nM.
Regarding `Cc1noc(C)c1-c1cnc2c(c1)c(-c1ccc(C(=O)O)cc1OC(F)(F)F)cn2-c1ccc(C2CC2)nc1` [P-0388, 4-(1-(6-cyclopropylpyridin-3-yl)-5-(3,5-dimethylisoxazol-4-yl)-1H-pyrrolo[2,3-b]pyridin-3-yl)-3-(trifluoromethoxy)benzoic acid], the IC50 is 0.1 to 1000 nM.
With `Cc1noc(C)c1-c1cnc2c(c1)c(-c1ccc(C(=O)O)cc1OC(F)(F)F)cn2C1CCC(C#N)C1` (centres unmarked) [P-0389, 4-(1-(3-cyanocyclopentyl)-5-(3,5-dimethylisoxazol-4-yl)-1H-pyrrolo[2,3-b]pyridin-3-yl)-3-(trifluoromethoxy)benzoic acid], the IC50 was in the range of 0.1 to 1000 nM.
For the compound `Cc1noc(C)c1-c1cnc2c(c1)c(-c1c(Cl)cc(C(=O)O)cc1OCC(F)F)cn2-c1cnc(C2CC2)nc1` [P-0390, 3-chloro-4-(1-(2-cyclopropylpyrimidin-5-yl)-5-(3,5-dimethylisoxazol-4-yl)-1H-pyrrolo[2,3-b]pyridin-3-yl)-5-(2,2-difluoroethoxy)benzoic acid], the IC50 was 0.1 to 1000 nM.
In the case of `Cc1noc(C)c1-c1cnc2c(c1)c(-c1c(Cl)cc(C(=O)O)cc1OC1CCC1)cn2-c1cnc(C2CC2)nc1` [P-0391, 3-chloro-5-cyclobutoxy-4-(1-(2-cyclopropylpyrimidin-5-yl)-5-(3,5-dimethylisoxazol-4-yl)-1H-pyrrolo[2,3-b]pyridin-3-yl)benzoic acid] it was 0.1 to 1000 nM.
